Test results from US10920198B2, “Delta133p53beta and delta133p53gamma isoforms are biomarkers of cancer stem cells” (Centre National de la Recherche Scientifique (CNRS), priority 2015, dated 2021).

What was measured:
MCF-7 cells [1] = experiment: Mammosphere formation in MCF-7 cells; format: cell-based, human; conditions: for mammosphere formation: MCF-7 cells after transduction, compared to control cells
Method: (§1) For mammosphere formation, 1000 cells/ml (500 cells/well) were plated in Ultra Low Cluster Plate, 24-well, Flat Bottom (Corning Inc) with MammoCult™ Medium enriched with MammoCult™ Proliferation Supplements, hydrocortisone and heparin (Stem Cell Technologies) and cultured for 15 days. For all mammosphere assays, at least three independent experiments for each condition were carried out and repeated 8-12 times. For self-renewal experiments, transfected cells were subjected to a first cycle of mammosphere formation. Upon 15 days of culture the created mammospheres were dissociated and cells were re-plated in identical conditions as for the first plating.

[2] = system: c-Myc, Sox 2, Oct 3/4 and Nanog; experiment: Expression of pluripotency/reprogramming factors in MCF-7 cells (RT-qPCR, western blot); format: cell-based, human; conditions: for c-Myc expression / expression of Oct 3/4, Nanog and Sox 2: MCF-7 cells after transduction, mRNA and/or protein
From the text: (§2) The following antibodies were used for immunoblotting: anti-c-Myc (9E10 mouse hybridoma clone), -Nanog (sc-81961, Santa Cruz Biotechnology), -Oct 3/4 (sc-8630, Santa Cruz Biotechnology), -Sox 2 (sc-17320, Santa Cruz Biotechnology), -p53 (DO-1; sc-126 Santa Cruz Biotechnology), -p53 Sapu (Vojtesek et al. 1995), -α-tubulin (clone DM1A, Sigma-Aldrich), -β-actin (clone AC-74 Sigma-Aldrich), -p21 (sc-397 Santa Cruz Biotechnology) and -Flag (clone M2; Sigma-Aldrich). Secondary HRP-conjugated antibodies were from GE Healthcare. For luminescence quantification, cells were serially diluted and incubated with 0.5 mM D-luciferin (Sigma). Luminescence was quantified with a Polarstar Omega instrument (BMG LABTECH).
(§3) Total RNA was extracted (Qiagen) and reverse transcription (RT) was performed with 1-5 μg of total RNA using the SuperScript® III Reverse Transcriptase (Life Technologies) at 50° C. Levels of different mRNAs were quantified by real-time qPCR on a LightCycler480 apparatus (Roche). Briefly, 20 ng cDNA was amplified using 0.168 μM of each primer, 0.2 μM of probe (Table 4) and 1× LightCycler® 480 Probes Master Mix (Roche) for the p53 isoforms, or commercially available primers (Qiagen) and 1× LightCycler® 480 Sybr Green Master Mix (Roche) for the other genes. Data were normalized to the internal standard TBP. The different primers used and their corresponding sequences have been previously described (Bourdon et al., 2005). For each single-well amplification reaction, a threshold cycle (Ct) was calculated by using the LightCycler480 program (Roche) in the exponential phase of amplification. Relative changes in gene expression were determined using the 2ΔΔCt method and reported relative to a control. All quantification studies were performed with at least three independent experiments, repeated twice, for each condition. Data are presented as the arithmetic mean±SEM.

[3] = system: Δ133p53 (α, β and γ) isoforms; experiment: Expression of Δ133p53 isoforms in MCF-7 cells (RT-qPCR, western blot); format: cell-based, human; conditions: MCF-7 cells after transduction; RT-qPCR
From the text: as §2
Total RNA was extracted (Qiagen) and reverse transcription (RT) was performed with 1-5 μg of total RNA using the SuperScript® III Reverse Transcriptase (Life Technologies) at 50° C. Levels of different mRNAs were quantified by real-time qPCR on a LightCycler480 apparatus (Roche). […] For each single-well amplification reaction, a threshold cycle (Ct) was calculated by using the LightCycler480 program (Roche) in the exponential phase of amplification. Relative changes in gene expression were determined using the 2ΔΔCt method and reported relative to a control. All quantification studies were performed with at least three independent experiments, repeated twice, for each condition. […]

MCF-7 cells [4] = experiment: Flow cytometry of CD44/CD24 double labeling in MCF-7 cells; format: cell-based, human; conditions: MCF-7 cells after transduction
Method: (§4) Single cell suspensions were labeled on ice with CD24-FITC, CD44-PE and their respective isotype controls (BioLegend) at the dilutions indicated by the manufacturer in Phosphate Buffered Saline (PBS) with 10% FBS for 30 min. Cells were then washed once with PBS and re-suspended in PBS/10% FBS. All samples were analyzed on a CyAn analyzer ([…] Coulter, Inc) using Sytox Blue (Life Technologies) to monitor cell viability.

[5] = system: SW480 colon carcinoma cells; experiment: Colosphere formation in SW480 colon carcinoma cells; format: cell-based, human; conditions: compared to control shLuc
Method: as §1
The same protocol has been used with human colon carcinoma cell line SW480.

MDA-MB-231 C3LND cells [6] = experiment: Mammosphere formation in MDA-MB-231 C3LND cells; format: cell-based, human; conditions: C3LND cells after transduction
Method: as §1

[7] = system: c-Myc, Oct 3/4, Nanog and Sox 2; experiment: RT-qPCR of pluripotency/reprogramming factors in MDA-MB-231 C3LND cells; format: cell-based, human; conditions: C3LND cells after transduction
Method: as §3

MDA-MB-231 C3LND cells [8] = experiment: Flow cytometry of CD44/CD24 double labeling in MDA-MB-231 C3LND cells; format: cell-based, human; conditions: C3LND cells after transduction
Method: as §4

C3LND cancer cells = experiment: Distant metastasis after intracardiac injection of C3LND cells in athymic mice (bioluminescence); format: in vivo; conditions: transduced C3LND cells, compared to control cells
Method: All in vivo experiments were performed in compliance with the French regulations and ethical guidelines for experimental animal studies in an accredited establishment (Agreement No. C34-172-27). 2.10^6 control or Sh3-treated C3LND cancer cells were grafted in 6 week-old female athymic mice (Harlan, Le Malourlet, France) by intracardiac injection (n=5-7/group). Bioluminescence detection was used to monitor tumor growth and distal metastasis formation in head and legs. Regions of interest (ROI) were delineated around the tumor sites and the total flux (ph/s) in the ROI was measured.

MDA-MB-231 D3H2LN cells = experiment: Mammosphere formation in MDA-MB-231 D3H2LN cells; format: cell-based, human; conditions: overexpression
Method: as §1

[9] = system: c-Myc, Oct 3/4, Nanog and Sox 2; experiment: Expression of pluripotency/reprogramming factors in MDA-MB-231 D3H2LN cells (RT-qPCR, western blot); format: cell-based, human; conditions: D3H2LN cells, overexpression
Method: The human breast cancer cell lines MCF-7, MDA-MB 231 D3H2LN and C3LND were grown in MEM supplemented with 10% FCS, sodium pyruvate and glutamine. Following viral infection, cells were used after 24-48 h or subjected to selection with 2 μg/ml puromycin (InvivoGen) or 300 μg/ml hygromycin B (Invitrogen) for two days. Etoposide treatment was performed with final doses of 12.5, 25 and 50 ng/ml for 16 h or 50 ng/ml/day for 7 days.
as §2, §3

Molecule | mammosphere formation (MCF-7 cells [1]) | c-Myc expression [2] | expression of Oct 3/4, Nanog and Sox 2 [2] | further results
Sh2: shRNA, 5′-GTCCAGATGAAGCTCCCAGAA-3′ (SEQ ID NO: 18); targets the long TAp53 and Δ40p53 isoforms (target site or template, no part of the molecule; short hairpin RNA, only the targeted sequence is given, further chemistry not given here) | no effect | but not of c-Myc | increased expression | expression of the Δ133 isoforms [3]: increased; proportion of CD44+/CD24− cells (MCF-7 cells [4]): not affected
Sh3: shRNA, 5′-GGAGGTGCTTACACATGTT-3′ (SEQ ID NO: 14); targets the 5′ UTR of the Δ133 isoforms (α, β and γ) (target site or template, no part of the molecule; short hairpin RNA, only the targeted sequence is given, further chemistry not given here) | significantly reduced | not affected | significantly down-regulated | Oct 3/4, Nanog and Sox 2 expression ([2]; MCF-7 cells, both etoposide treated and untreated): reduced; colospheres formation [5]: significantly reduced; sphere formation (MDA-MB-231 C3LND cells [6]): significant reduction; Oct 3/4, Nanog and Sox 2 expression [7]: marked decrease; c-Myc level [7]: small increase; proportion of CD44+/CD24− cells (MDA-MB-231 C3LND cells [8]): decreased; metastasis to distant sites (C3LND cancer cells): less prone to metastasize to distant sites
Sh4: shRNA, 5′-CTTGTGCCCTGACTTTCAA-3′ (SEQ ID NO: 15); targets the 5′ UTR of the Δ133 isoforms (α, β and γ) (target site or template, no part of the molecule; short hairpin RNA, only the targeted sequence is given, further chemistry not given here) | significantly reduced | not affected | significantly down-regulated | –
Δ133p53β: human p53 isoform (SEQ ID NO: 1), overexpressed from pMSCVhyg retroviral vector | significantly promoted | but not of c-Myc | significant increase | mammosphere formation after harvesting and re-plating of primary mammospheres (MCF-7 cells [1]; MCF-7 cells overexpressing the isoform, self-renewal): higher; Oct 3/4, Nanog and Sox 2 expression [7]: increased; mammosphere formation (MDA-MB-231 D3H2LN cells): significant increase; Oct 3/4, Nanog and Sox 2 expression [9]: significant increase; c-Myc level [9]: not affected
Sh1: shRNA, 5′-GACTCCAGTGGTAATCTAC-3′ (SEQ ID NO: 13); knocks down all p53 isoforms (target site or template, no part of the molecule; short hairpin RNA, only the targeted sequence is given, further chemistry not given here) | significant reduction | no effect | no effect | –
Sh5: shRNA, 5′-GGACCAGACCAGCTTTCA-3′ (SEQ ID NO: 16); targets the 3′ end of the β isoforms (target site or template, no part of the molecule; short hairpin RNA, only the targeted sequence is given, further chemistry not given here) | significantly reduced | – | – | –
Sh6: shRNA, 5′-GTGAGCGCTTCGAGATGTT-3′ (SEQ ID NO: 19); targets the 3′ end of the α isoforms (target site or template, no part of the molecule; short hairpin RNA, only the targeted sequence is given, further chemistry not given here) | did not affect | – | – | –
Δ133p53γ: human p53 isoform (SEQ ID NO: 3), overexpressed from pMSCVhyg retroviral vector (protein, listed as Homo sapiens, SITE (1)..(214) Homo sapiens tumor protein p53, isoform delta133p53gamma (Genbank NP_001119589.1)) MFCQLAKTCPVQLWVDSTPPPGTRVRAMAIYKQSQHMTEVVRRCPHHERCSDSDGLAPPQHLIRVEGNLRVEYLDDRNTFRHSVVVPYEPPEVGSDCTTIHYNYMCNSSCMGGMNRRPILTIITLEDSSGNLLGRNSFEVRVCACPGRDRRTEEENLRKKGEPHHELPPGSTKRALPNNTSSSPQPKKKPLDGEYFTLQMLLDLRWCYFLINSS | milder effect | – | – | –
